These molecules were tested on PAF-induced primary aggregation (assay: PAF-induced primary aggregation in human platelet-rich plasma). Details: indomethacin-treated PRP, test compound incubated two minutes at 37° C. before sub-optimal dose of PAF, read-out: IC50, inhibition of PAF-induced primary aggregation in human platelet-rich plasma.
Type: cell-based
Procedure: PAF-Induced Primary Aggregation in Human Platelet-Rich Plasma
Human venous blood was collected from healthy male donors, who had denied any medication during the previous 14 days. Nine volumes of blood were mixed with one volume of 3.24% trisodium citrate. The citrated blood was centrifuged at 160 g for ten minutes at 22° C. to obtain platelet rich plasma (PRP). The platelets were then counted on a Coulter counter, and the platelet count was adjusted to 200,000 per μl with plasma. The PRP was then treated with indomethacin dissolved in dimethylsulfoxide (10 μg indomethacin per ml PRP). A stock solution of PAF (C16 or C18 β-acetyl-γ-O-alkyl-L-α-phosphatidylcholine; 1 mg/ml) was prepared as a solution in chloroform-methanol (9:1 v/v). A 10 μl portion of the stock solution was evaporated to dryness under nitrogen and dissolved in 0.15M sodium chloride-0.15M Tris.HCl (90:10 v/v) buffer containing 0.25% bovine albumin. Small volumes of the PAF solution (5-15 μl) were added to 0.5 ml samples of indomethacin-treated PRP and the aggregation trace was recorded using an aggregometer. A dose reponse curve was obtained and a sub-optimal dose of PAF was determined for use in inhibition studies.
Indomethacin-treated PRP (0.5 ml) was incubated with a test compound dissolved in buffer (ca. pH 5) or dimethylsulfoxide for two minutes at 37° C. prior to addition of the sub-optimal dose of PAF. The subsequent aggregation trace was recorded and the present inhibition of PAF primary aggregation was determined by comparison with a control PAF-induced aggregation trace. (Due to variability in PAF-induced aggregation within a given PRP sample, a control PAF-induced aggregation was determined every two or three samples.) An inhibition dose-response curve was determined for each test compound and the IC50 value calculated. Table I lists IC50 's for illustrative examples of the compounds of this invention.

IC50	SMILES
5 µM	CN(C(=O)c1ccc(Cn2cnc3cnccc32)cc1)C1CCCCC1 [Example 5, N-Cyclohexyl-N-methyl-4-(1H-imidazo[4,5-c]pyridin-1-yl-methyl)benzamide]
56 µM	c1cc2ncn(CCCCc3nnnn3C3CCCCC3)c2cn1 [12(A), 3-[4-(1-Cyclohexyl-1H-tetrazol-5-yl)butyl]-3H-imidazo[4,5-c]pyridine]
500 µM	CCOC(=O)CCCCn1cnc2ccncc21 [7(A), Ethyl 5-(3H-imidazo[4,5-c]pyridin-3-yl)pentanoate]
118 µM	c1cnc2c(c1)ncn2CCCCc1nnnn1C1CCCCC1 [16(A), 3-[4-(1-Cyclohexyl-1H-tetrazol-5-yl)butyl]-3H-imidazo[4,5-b]pyridine]
215 µM	O=C(c1ccc(Cn2cnc3ccncc32)cc1)N1CCOCC1 [Example 4, [4-(3H-imidazo[4,5-c]pyridin-3-ylmethyl)phenyl](4-morpholinyl)methanone]
165 µM	CCOC(=O)c1cccc(Cn2cnc3ccncc32)c1 [2(A), Ethyl 3-(3H-imidazo[4,5-c]pyridin-3-ylmethyl)benzoate]
8 µM	c1cc2c(cn1)ncn2CCCCc1nnnn1C1CCCCC1 [12(B), 1-[4-(1-Cyclohexyl-1H-tetrazol-5-yl)butyl]-1H-imidazo[4,5-c]pyridine]
112 µM	c1cnc2ncn(CCCCc3nnnn3C3CCCCC3)c2c1 [16(B), 1-[4-(1-Cyclohexyl-1H-tetrazol-5-yl)butyl]-1H-imidazo[4,5-b]pyridine]
185 µM	CCOC(=O)CCCCn1cnc2cnccc21 [7(B), Ethyl 5-(1H-imidazo[4,5-c]pyridin-1-yl)pentanoate]
102 µM	CCOC(=O)CCCCCn1cnc2ccncc21 [8(A), Ethyl 6-(3H-imidazo[4,5-c]pyridin-3-yl)hexanoate]
49.5 µM	O=C(c1ccc(Cn2cnc3cnccc32)cc1)N1CCOCC1 [Example 3, [4-(1H-imidazo[4,5-c]pyridin-1-ylmethyl)phenyl](4-morpholinyl)methanone]
80 µM	CCOC(=O)c1cccc(Cn2cnc3cnccc32)c1 [2(B), Ethyl 3-(1H-imidazo[4,5-c]pyridin-1-ylmethyl)benzoate]
29 µM	CCOC(=O)c1ccc(Cn2cnc3ncccc32)cc1 [14(B), Ethyl 4-(1H-imidazo[4,5-b]pyridin-1-ylmethyl)benzoate]
43.5 µM	CCOC(=O)C(C)(C)CCCCn1cnc2ccncc21 [10(A), Ethyl 2,2-dimethyl-6-(3H-imidazo[4,5-c]pyridin-3-yl)hexanoate]
20.5 µM	CCOC(=O)CCCCCn1cnc2cnccc21 [8(B), Ethyl 6-(1H-imidazo[4,5-c]pyridin-1-yl)hexanoate]

More lines, now with the values behind:

SMILES	IC50
c1cc2c(cn1)ncn2CCCCCc1nnnn1C1CCCCC1 [Example 13, 1-[5-(1-Cyclohexyl-1H-tetrazol-5-yl)pentyl]-1H-imidazo[4,5-c]pyridine]	33 µM
CN(C(=O)CCCCCCn1cnc2ccncc21)C1CCCCC1 [11(A), N-Cyclohexyl-N-Methyl-7-(3H-imidazo[4,5-c]pyridin-3-yl)heptanamide]	500 µM
O=C(c1ccc(Cn2cnc3ncccc32)cc1)N1CCOCC1 [Example 15, [4-(1H-Imidazo[4,5-b]pyridin-1-ylmethyl)phenyl](4-morpholinyl)methanone]	87 µM
CCOC(=O)c1ccc(Cn2cnc3ccncc32)cc1 [1(A), Ethyl 4-(3H-imidazo[4,5-c]pyridin-3-ylmethyl)benzoate]	136 µM
CCOC(=O)c1ccc(Cn2cnc3cnccc32)cc1 [1(B), Ethyl 4-(1H-imidazo[4,5-c]pyridin-1-ylmethyl)benzoate]	46 µM
CCOC(=O)CCCCCCn1cnc2cnccc21 [9(B), Ethyl 7-(1H-imidazo[4,5-c]pyridin-1-yl)heptanoate]	20 µM
CCOC(=O)C(C)(C)CCCCn1cnc2cnccc21 [10(B), Ethyl 2,2-dimethyl-6-(1H-imidazo[4,5-c]pyridin-1-yl)hexanoate]	15 µM
CCOC(=O)c1ccc(Cn2cnc3cccnc32)cc1 [14(A), Ethyl 4-(3H-imidazo[4,5-b]pyridin-3-ylmethyl)benzoate]	58 µM
CCOC(=O)CCCn1cnc2ccncc21 [6(A), Ethyl 4-(3H-imidazo[4,5-c]pyridin-3-yl)butanoate]	140 µM
CCOC(=O)CCCCCCn1cnc2ccncc21 [9(A), Ethyl 7-(3H-imidazo[4,5-c]pyridin-3-yl)heptanoate]	48 µM

Source: patent US4804658A, “Imidazopyridine derivatives and pharmaceutical compositions” (G. D. Searle & Co., priority 1986, dated 1989)
